In patent US6407204B1 (priority 1997, dated 2002):
“Also recorded” adds a separate entry of the source.

Columns and labels:
NMDA receptor = details: literature, cited from earlier work; for motor impairment: relative to analgesic doses
Male Sprague-Dawley rats [1] = details: rat, in vivo
Male Sprague-Dawley rats [2] = details: rat, in vivo; remark: listed apart in the source
formalin test = details: literature; ifenprodil at a high dose; cited from earlier work
[3] = test system: NMDA polyamine site, forebrain membrane preparations; details: cited from earlier work
[4] = test system: cholinergic neurons of the QA lesioned striatum; details: rat, in vivo
[5] = test system: GABAergic neurons of the QA lesioned striatum; details: rat, in vivo

In the case of `c1ccc(C2(N3CCCCC3)CCCCC2)cc1` [phenylcyclidine (PCP), phenylcyclidine], the analgesic activity (NMDA receptor) is given as “show analgesic activity” and the motor impairment (NMDA receptor) is given as “show motor impairment at equivalent doses”.

In the case of `C[C@]12N[C@H](Cc3ccccc31)c1ccccc12` [MK-801], the “dose required to inhibit / significantly attenuate phase II flinches” value (Male Sprague-Dawley rats [1]) is reported as 30 µg, the “side effects at the dose attenuating phase II flinches” value (Male Sprague-Dawley rats [2]) is reported as “side effects, including head weaving” and the “toxicity at doses that decreased flinches” value (Male Sprague-Dawley rats [2]) is reported as “clear toxicity”. For the same compound, the “analgesic effect in the formalin test” value (formalin test) was “submaximal analgesic effect”, the analgesic activity (NMDA receptor) was “show analgesic activity” and the motor impairment (NMDA receptor) was “show motor impairment at equivalent doses”.

In the case of β-endorphin, the “dose at which maximal possible effect was observed, phase I” value (Male Sprague-Dawley rats [1]) is reported as 1.0 µg, the “dose at which maximal possible effect was observed, phase II” value (Male Sprague-Dawley rats [1]) is reported as 3.3 µg and the “dose required to inhibit / significantly attenuate phase I flinches” value (Male Sprague-Dawley rats [1]) is reported as 0.3 µg. For the same compound, the “dose required to inhibit / significantly attenuate phase II flinches” value (Male Sprague-Dawley rats [1]) was 0.6 µg, the “effect of the single agent alone” value (Male Sprague-Dawley rats [1]) was “no effect” and the “effect on flinches in both phase I and phase II” value (Male Sprague-Dawley rats [1]) was “dose-dependent decrease in flinches”. For the same compound, the “effect on phase I flinches” value (Male Sprague-Dawley rats [1]) was “no effect”, the “effect on phase II flinches” value (Male Sprague-Dawley rats [1]) was “no effect” and the overt side effects (Male Sprague-Dawley rats [2]) was “overt signs of sedation and motor impairment”.

With “Gly-Glu-Gla-Gla-Val-Ala-Lys-Met-Ala-Ala-Glu-Leu-Ala-Arg-Glu-Asn-Ile-Ala-Lys-Gly-Cys-Lys-Val-Asn-Cys-Tyr-Pro [Conantokin R]” the “dose required to inhibit / significantly attenuate phase I flinches” value (Male Sprague-Dawley rats [1]) was 3.3 µg and the “dose required to inhibit / significantly attenuate phase II flinches” value (Male Sprague-Dawley rats [1]) was 3.3 µg.

In the case of `NCCCNCCCCNCCCN` [spermine], the “maximal effective concentration for enhancement of [3H]MK-801 binding” value [3] is given as “about 20 μM”.

For `CC(C(O)c1ccc(O)cc1)N1CCC(Cc2ccccc2)CC1` (stereo not shown) [ifenprodil], the “analgesic effect in the formalin test” value (formalin test) is given as “did not have an analgesic effect; also recorded: no effect”.

In the case of “Gly-Glu-Gla-Gla-Leu-Gln-Gla-Asn-Gln-Gla-Leu-Ile-Arg-Gla-Lys-Ser-Asn-NH2 [Conantokin G]”, the “dose required to inhibit / significantly attenuate phase I flinches” value (Male Sprague-Dawley rats [1]) is reported as 1.0 µg, the “dose required to inhibit / significantly attenuate phase II flinches” value (Male Sprague-Dawley rats [1]) is reported as 0.05 µg and the “QA lesion-induced loss of ChAT activity” value [4] is reported as “completely blocked”. The “QA lesion-induced loss of GAD activity” value [5] was “completely blocked; also recorded: complete prevention”.
